Data published in PubChem BioAssay (NCI).
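Assay format: 96-well plates, 48-hour exposure. GI50 is the concentration that inhibits growth by half. TGI denotes the concentration required for complete inhibition of growth.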

Tests used:
Assay in all cases: NCI anticancer screen, dose series, 48 h
CAKI-1 renal = test system: CAKI-1 renal
COLO 205 colon = test system: COLO 205 colon
HL-60(TB) leukemia = test system: HL-60(TB) leukemia
HOP-92 NSCLC = test system: HOP-92 NSCLC
IGROV1 ovarian = test system: IGROV1 ovarian
K-562 leukemia = test system: K-562 leukemia
SNB-19 CNS = test system: SNB-19 CNS
SNB-75 CNS = test system: SNB-75 CNS
HS 578T breast = test system: HS 578T breast
MDA-MB-231 breast = test system: MDA-MB-231 breast
MALME-3M melanoma = test system: MALME-3M melanoma

Structure (SMILES) | TGI (CAKI-1 renal) [µM] | TGI (COLO 205 colon) [µM] | TGI (HL-60(TB) leukemia) [µM] | TGI (HOP-92 NSCLC) [µM] | TGI (IGROV1 ovarian) [µM] | TGI (K-562 leukemia) [µM] | TGI (SNB-19 CNS) [µM] | TGI (SNB-75 CNS) [µM] | TGI (HS 578T breast) [µM] | TGI (MDA-MB-231 breast) [µM] | TGI (MALME-3M melanoma) [µM] | GI50 (CAKI-1 renal) [µM] | GI50 (HL-60(TB) leukemia) [µM] | GI50 (HS 578T breast) [µM] | GI50 (IGROV1 ovarian) [µM] | GI50 (K-562 leukemia) [µM] | GI50 (MALME-3M melanoma) [µM] | GI50 (MDA-MB-231 breast) [µM] | GI50 (SNB-19 CNS) [µM] | GI50 (SNB-75 CNS) [µM]
CC(N)C(=O)OCN1C(=O)C2C3C=CC(C2C1=O)C1C2C(=O)N(COC(=O)C(C)N)C(=O)C2C31 (stereo unspecified) | > 100 | 35.1 | 62.2 | > 100 | > 100 | 77 | > 100 | 85.5 | – | – | – | – | – | – | – | – | – | – | – | –
CNC1C(O)C(NC)C2OC3(O)C(=O)CC(C)OC3OC2C1O (stereo unspecified) | > 100 | > 100 | > 100 | > 100 | > 100 | > 100 | > 100 | > 100 | > 100 | > 100 | – | – | – | – | – | – | – | – | – | –
C1CCC(OCc2nnn3c2CCC3)OC1 (stereo unspecified) | – | – | > 100 | > 100 | > 100 | > 100 | – | > 100 | – | – | > 100 | – | – | – | – | – | – | – | – | –
CCCCC(C(=O)N/N=C/c1ccc([N+](=O)[O-])o1)C(=O)N/N=C/c1ccc([N+](=O)[O-])o1 | 14.7 | 14.7 | 6.71 | 4.08 | 4.22 | 14.6 | 13.7 | 33.5 | 5.57 | 12 | 7.93 | – | – | – | – | – | – | – | – | –
Cc1nc2c(O)cc3c4c(=O)n(C)c(=O)n(C)c4n(Cc4ccccc4)c3c2nc1C | – | 28 | 53.8 | 27.2 | – | > 100 | 34.4 | – | 80.1 | 38.2 | 38.8 | – | – | – | – | – | – | – | – | –
Cc1cccc(O)c1-c1nnc(CCCCCCCCc2nnc(-c3c(C)cccc3O)n2N)n1N | > 100 | > 31.6 | > 100 | > 31.6 | > 100 | > 100 | > 100 | > 58.1 | > 100 | > 100 | > 100 | – | – | – | – | – | – | – | – | –
CO[C@H]1ON=C(c2c(C)cc(C)cc2C)[C@@H]1C1(c2ccccc2)ON=C(c2c(C)cc(C)cc2C)O1 (stereo partly specified) | – | > 100 | > 100 | > 100 | > 100 | > 100 | > 100 | – | – | – | > 100 | – | – | – | – | – | – | – | – | –
[O-]c1c[n+](CCCC[n+]2cc([O-])on2)no1 | > 100 | > 100 | > 100 | > 100 | > 100 | > 100 | > 100 | > 100 | > 100 | > 100 | > 100 | – | – | – | – | – | – | – | – | –
C=C1C(=O)OC2/C=C(\C)C3OC3/C=C(/C(=O)OC)C(O)C(OC(=O)C3(C)OC3C)C12 (stereo unspecified) | 4.97 | 2.52 | – | 5.68 | 8.45 | 14.3 | – | 26.3 | – | – | 3.21 | – | – | – | – | – | – | – | – | –
COc1ccc(CC2c3cc(OC)c(OC)c(OC)c3CC[N+]2(C)C)cc1Oc1ccc(CC2c3cc4c(c(OC)c3CC[N+]2(C)C)OCO4)cc1 (stereo unspecified) | > 100 | > 100 | > 100 | > 100 | > 100 | > 100 | > 100 | > 100 | > 100 | > 100 | > 100 | – | – | – | – | – | – | – | – | –
CC(C)OC(=O)Nc1cccc(Cl)c1 | > 100 | > 100 | > 100 | > 100 | > 100 | > 100 | > 100 | > 100 | > 100 | > 100 | – | – | – | – | – | – | – | – | – | –
Cn1cc(-c2csc(-c3cn(C)c4ccc(Br)cc34)n2)c2cnccc21 | 3.22 | – | 3.31 | – | 3.28 | 0.563 | 3.26 | 2.6 | 4.73 | 3.09 | 3.48 | 1.77 | 1.48 | 2.23 | 1.76 | 0.239 | 1.95 | 1.66 | 1.73 | 1.28
Cc1ccc(S(=O)(=O)N2c3ccccc3[C@H]3CCc4c([nH]c5ccccc45)[C@H]32)cc1 | > 100 | > 100 | – | > 100 | > 100 | > 100 | > 100 | > 100 | – | > 100 | – | – | – | – | – | – | – | – | – | –
C[C@H]1C(=O)O[C@@H]1[C@H]1COC(C)(C)O1 | > 100 | – | > 100 | > 100 | – | – | > 100 | > 100 | – | > 100 | – | – | – | – | – | – | – | – | – | –
CCN1CCN(c2nc3ccccc3nc2C(=O)c2ccc(OC)cc2)CC1 | > 100 | > 100 | > 100 | > 100 | > 100 | > 100 | > 100 | > 100 | > 100 | – | 62.2 | – | – | – | – | – | – | – | – | –
COC(=O)C(=O)C(C(=O)C1=NS(=O)(=O)c2cc(S(N)(=O)=O)c(Cl)cc2N1)c1nc2ccc(C(=O)c3ccccc3)cc2[nH]c1=O (stereo unspecified) | > 100 | > 100 | – | – | > 100 | > 100 | > 100 | – | – | – | > 100 | – | – | – | – | – | – | – | – | –
CN1C(=O)CN2C(Cl)(Cl)C2(c2ccccc2F)c2cc([N+](=O)[O-])ccc21 (stereo unspecified) | > 100 | > 100 | – | 91.4 | > 100 | > 100 | – | > 100 | – | – | 95.8 | – | – | – | – | – | – | – | – | –
c1ccc(CSC2(SCc3ccccc3)CCCC2)cc1 | > 10 | > 10 | > 10 | – | > 10 | > 10 | > 10 | > 10 | > 10 | > 10 | > 10 | – | – | – | – | – | – | – | – | –
Cc1cc(S(=O)(=O)NC(=C(C#N)C#N)[n+]2ccc(N(C)C)cc2)c([S-])cc1Cl | > 100 | > 100 | > 100 | > 100 | > 100 | > 100 | > 100 | – | > 100 | > 100 | > 100 | – | – | – | – | – | – | – | – | –
NC(=O)c1ccc(NS(=O)(=O)c2ccc(N)cc2)nc1 | > 100 | > 100 | > 100 | > 100 | > 100 | > 100 | > 100 | > 100 | > 100 | > 100 | > 100 | – | – | – | – | – | – | – | – | –
Nc1nc(Cl)cc(NCCCNc2cc(Cl)nc(N)n2)n1 | – | > 100 | > 100 | > 100 | > 100 | > 100 | – | > 100 | – | – | > 100 | – | – | – | – | – | – | – | – | –
Cc1ccccc1[P+](C)(c1ccccc1C)c1ccccc1C | – | 22.4 | – | 58 | 33 | – | 37.4 | 40.8 | 55 | 35.2 | 22.9 | – | – | – | – | – | – | – | – | –
CN(C)CCCNC(=O)c1cc(NC(=O)c2cc(NS(=O)(=O)c3ccc4c(c3)C(=O)c3ccccc3C4=O)cn2C)cn1C | > 100 | > 100 | > 100 | > 100 | > 100 | > 100 | > 100 | > 100 | – | > 100 | 79.4 | – | – | – | – | – | – | – | – | –
CC1=C(C#N)C23C(=O)c4ccccc4C(O)=C2C(=O)C=CC3(O)N1 (stereo unspecified) | 23.3 | > 100 | 15.2 | 6.38 | 17.2 | > 100 | 25.5 | 4.56 | – | 43.5 | 3.86 | – | – | – | – | – | – | – | – | –
